# ChEMBL document CHEMBL1148935, “Mechanism-based inactivation of COX-1 by red wine m-hydroquinones: a structure-activity relationship study” (J Nat Prod, 2004)
# pIC50, pKd: −log10 of the molar value. The source made the active and inactive calls. The rule behind the calls is not given here.
# What was measured:
# [1] = target: T1, Prostaglandin G/H synthase 2 (Homo sapiens) (UniProt P35354); experiment: Inhibition of human COX2 expressed in baculovirus infected Sf-21 insect cells
# T1 sequence (whole entry): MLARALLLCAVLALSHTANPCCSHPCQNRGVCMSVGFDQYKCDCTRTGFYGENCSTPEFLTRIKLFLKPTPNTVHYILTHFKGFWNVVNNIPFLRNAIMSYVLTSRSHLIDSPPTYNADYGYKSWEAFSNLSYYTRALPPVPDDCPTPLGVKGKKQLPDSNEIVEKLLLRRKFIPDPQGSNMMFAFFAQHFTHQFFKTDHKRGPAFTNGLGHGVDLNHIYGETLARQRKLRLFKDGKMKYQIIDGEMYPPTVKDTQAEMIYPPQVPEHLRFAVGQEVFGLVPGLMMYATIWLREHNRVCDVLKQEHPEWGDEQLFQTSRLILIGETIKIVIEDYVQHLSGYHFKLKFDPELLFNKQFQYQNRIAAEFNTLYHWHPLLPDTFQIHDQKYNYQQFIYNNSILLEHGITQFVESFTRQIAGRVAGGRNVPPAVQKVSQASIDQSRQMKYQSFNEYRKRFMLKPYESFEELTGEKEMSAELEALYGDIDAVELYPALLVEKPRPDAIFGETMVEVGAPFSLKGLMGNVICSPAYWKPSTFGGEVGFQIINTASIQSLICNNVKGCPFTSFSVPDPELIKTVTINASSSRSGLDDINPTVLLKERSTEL
# [2] = target: T2, Prostaglandin G/H synthase 1 (Ovis aries) (UniProt P05979); experiment: Effect on COX1 activity in sheep seminal vesicle at 5 uM by TMPD peroxidase assay; type: tissue-based
# T2 sequence (whole entry): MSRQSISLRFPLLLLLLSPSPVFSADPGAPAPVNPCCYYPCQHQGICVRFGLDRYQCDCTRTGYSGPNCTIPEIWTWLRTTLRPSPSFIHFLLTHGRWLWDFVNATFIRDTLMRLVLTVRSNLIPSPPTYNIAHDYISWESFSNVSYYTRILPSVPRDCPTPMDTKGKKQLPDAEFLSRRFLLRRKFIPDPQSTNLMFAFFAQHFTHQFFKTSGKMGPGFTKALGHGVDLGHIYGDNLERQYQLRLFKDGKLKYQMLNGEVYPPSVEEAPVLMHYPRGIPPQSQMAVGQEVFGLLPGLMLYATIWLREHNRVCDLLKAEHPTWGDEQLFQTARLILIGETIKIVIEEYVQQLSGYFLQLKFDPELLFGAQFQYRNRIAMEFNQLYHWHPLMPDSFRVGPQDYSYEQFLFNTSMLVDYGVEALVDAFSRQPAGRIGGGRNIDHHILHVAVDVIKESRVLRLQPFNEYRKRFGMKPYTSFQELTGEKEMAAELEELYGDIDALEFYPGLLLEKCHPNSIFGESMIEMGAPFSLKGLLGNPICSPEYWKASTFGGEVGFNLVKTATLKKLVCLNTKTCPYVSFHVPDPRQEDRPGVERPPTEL
# [3] = target: T2, Prostaglandin G/H synthase 1 (Ovis aries); experiment: Inactivation of holo-COX1 in sheep seminal vesicle assessed as drug oxidization at 2.5 to 4 nmol by RP-HPLC in presence of hydrogen peroxide
# [4] = target: T3, Prostaglandin G/H synthase 1 (Ovis aries, UniProt P05979); experiment: Binding affinity to COX1 in sheep seminal vesicle
# T3 sequence (P05979 whole entry): T2 sequence (whole entry)
# [5] = target: T3, Prostaglandin G/H synthase 1; experiment: Inhibition of peroxidase activity of COX1 in heep seminal vesicle by TMPD assay; type: tissue-based
# [6] = target: T3, Prostaglandin G/H synthase 1; experiment: Inhibition of cyclooxygenase activity of COX1 in sheep seminal vesicle in presence of 1 mM phenol by cyclooxygenase assay; type: tissue-based
Activity [1],Activity [2],Activity [3] [%],pKd [4],pIC50 [5],pIC50 [6],Structure (SMILES)
inactive,inactive,8,4.31,5.28,4.51,Oc1cc(O)c2c(c1)O[C@@H](c1ccc(O)c(O)c1)[C@H](O)C2 [(-)-CATECHIN]
inactive,inactive,5,4.60,5.60,4.89,Oc1cc(O)c2c(c1)O[C@@H](c1ccc(O)c(O)c1)[C@@H](O)C2 [(+)-EPICATECHIN]
inactive,inactive,7,4.39,5.39,4.69,Oc1cc(O)c2c(c1)O[C@H](c1ccc(O)c(O)c1)[C@@H](O)C2 [CIANIDANOL]
inactive,inactive,5,4.59,5.70,4.91,Oc1cc(O)c2c(c1)O[C@H](c1ccc(O)c(O)c1)[C@H](O)C2 [(-)-EPICATECHIN]
,inactive,5,4.06,5.44,4.51,Oc1cccc(O)c1 [RESORCINOL]

Structure (SMILES),Activity [1],Activity [2],Activity [3] [%],pKd [4],pIC50 [5],pIC50 [6]
Oc1ccc(/C=C/c2cc(O)cc(O)c2)cc1 [RESVERATROL],,inactive,,4.93,5.55,4.17
